Twelve compounds from patent US7875647B2, “Heteroaryl-pyrazole derivatives as cannabinoid CB1 receptor antagonists” (Green Cross Corporation, priority 2006, dated 2011) can be followed below.

A word on the IC50: it is the concentration that gives 50% inhibition.

This assay deals with T1, Cannabinoid-1 receptor (CB1R) (Rattus norvegicus, UniProt P20272).
T1 construct: The tissue obtained from the brain of SD rats was homogenized; from tissue; host or cells: brain of SD rats (membrane pellet of the homogenate)
T1 sequence (P20272 whole entry): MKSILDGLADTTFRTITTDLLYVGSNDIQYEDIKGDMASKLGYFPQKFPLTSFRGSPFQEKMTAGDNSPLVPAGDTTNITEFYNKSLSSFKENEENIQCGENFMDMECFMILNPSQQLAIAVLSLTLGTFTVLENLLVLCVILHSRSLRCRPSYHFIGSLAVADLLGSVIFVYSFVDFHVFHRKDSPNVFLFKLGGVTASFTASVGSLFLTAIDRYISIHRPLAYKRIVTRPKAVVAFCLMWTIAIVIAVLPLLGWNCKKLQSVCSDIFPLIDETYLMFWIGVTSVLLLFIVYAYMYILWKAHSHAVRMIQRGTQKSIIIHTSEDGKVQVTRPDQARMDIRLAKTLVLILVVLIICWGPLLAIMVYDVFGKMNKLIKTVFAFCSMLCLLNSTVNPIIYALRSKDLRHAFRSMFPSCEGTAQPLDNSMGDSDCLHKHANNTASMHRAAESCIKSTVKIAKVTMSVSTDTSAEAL
Kind of assay: Cannabinoid-1 receptor (CB1R) binding affinity assay ([3H]CP-55940, rat CB-1 receptor binding protocol). The note with it: brain tissue of SD rats, [3H]CP-55940, 30° C. 60 min; read-out: IC50.
Regarding `Cc1c(-c2nnc(C3CCC3)s2)nn(-c2ccc(Cl)cc2Cl)c1-c1ccc(Br)cc1` [Example 364, 2-(5-(4-Bromophenyl)-1-(2,4-dichlorophenyl)-4-methyl-1H-pyrazol-3-yl)-5-cyclobutyl-1,3,4-thiadiazole], the IC50 came to 34.4 nM.
In the case of `COC(C)c1c(-c2nnc(C(C)(C)C)o2)nn(-c2ccc(Cl)cc2Cl)c1-c1ccc(Cl)cc1` (stereo not drawn) [Example 226, 2-tert-butyl-5-(5-(4-chlorophenyl)-1-(2,4-dichlorophenyl)-4-(1-methoxyethyl)-1H-pyrazol-3-yl)-1,3,4-oxadiazole] it was 62.7 nM; in that of `CC(=O)OCC(C)(C)c1nnc(-c2nn(-c3ccc(Cl)cc3Cl)c(-c3ccc(Cl)cc3)c2C)o1` [Example 252, 2-(5-(5-(4-chlorophenyl)-1-(2,4-dichlorophenyl)-4-methyl-1H-pyrazol-3-yl)-1,3,4-oxadiazol-2-yl)-2-methylpropyl acetate], 54.5 nM; in that of `Cn1nnnc1Cc1c(-c2nnc(C(C)(C)C)o2)nn(-c2ccc(Cl)cc2Cl)c1-c1ccc(Cl)cc1` [Example 332, 2-tert-butyl-5-(5-(4-chlorophenyl)-1-(2,4-dichlorophenyl)-4-((1-methyl-1H-tetrazol-5-yl)methyl)-1H-pyrazol-3-yl)-1,3,4-oxadiazole], 14.8 nM.
Next, `Cc1c(-c2n[nH]c(C(C)C)n2)nn(-c2ccc(Cl)cc2Cl)c1-c1ccc(Cl)cc1` [Example 618, 3-(5-(4-chlorophenyl)-1-(2,4-dichlorophenyl)-4-methyl-1H-pyrazol-3-yl)-5-isopropyl-1H-1,2,4-triazole]: 142 nM; `CCc1c(-c2nnc(C3(c4ccc(OC)cc4)CC3)o2)nn(-c2ccc(Cl)cc2Cl)c1-c1ccc(Cl)cc1` [Example 152, 2-(5-(4-chlorophenyl)-1-(2,4-dichlorophenyl)-4-ethyl-1H-pyrazol-3-yl)-5-(1-(4-methoxyphenyl)cyclopropyl)-1,3,4-oxadiazole]: 5.62 nM.
In the case of `Clc1ccc(-c2c(Cl)c(-c3nnc(C4CCCCC4)s3)nn2-c2ccc(Cl)cc2Cl)cc1` [Example 538, 2-(4-chloro-5-(4-chlorophenyl)-1-(2,4-dichlorophenyl)-1H-pyrazol-3-yl)-5-cyclohexyl-1,3,4-thiadiazole] it was 653 nM.
As for `Cc1c(-c2nnc(C3(C)CC3(Cl)Cl)o2)nn(-c2ccc(Cl)cc2Cl)c1-c1ccc(Cl)cc1` (stereo not drawn) [Example 65, 2-(5-(4-chlorophenyl)-1-(2,4-dichlorophenyl)-4-methyl-1H-pyrazol-3-yl)-5-(2,2-dichloro-1-methylcyclopropyl)-1,3,4-oxadiazole], the IC50 is 12.4 nM.
Take `Cc1c(-c2nnnn2Cc2ccco2)nn(-c2ccc(Cl)cc2Cl)c1-c1ccc(Cl)cc1` [Example 593, 5-(5-(4-Chlorophenyl)-1-(2,4-dichlorophenyl)-4-methyl-1H-pyrazol-3-yl)-1-(furan-2-ylmethyl)-1H-tetrazole]: the IC50 stood at 53.8 nM.
Next, `CC(=O)OCc1c(-c2nnc(C(C)(C)C)o2)nn(-c2ccc(Cl)cc2Cl)c1-c1ccc(Br)cc1` [Example 195, (5-(4-bromophenyl)-3-(5-tert-butyl-1,3,4-oxadiazol-2-yl)-1-(2,4-dichlorophenyl)-1H-pyrazol-4-yl)methyl acetate]: 12.1 nM; `Cc1c(-c2nnc(C3(C)CC3)o2)nn(-c2ccc(Cl)cc2Cl)c1-c1ccc(Cl)cc1` [Example 275, 2-(5-(4-chlorophenyl)-1-(2,4-dichlorophenyl)-4-methyl-1H-pyrazol-3-yl)-5-(1-methylcyclopropyl)-1,3,4-oxadiazole]: 14.7 nM.
For `CC(C)(C)c1nnc(-c2nn(-c3ccc(Cl)cc3Cl)c(-c3ccc(Br)cc3)c2CF)s1` [Example 525, 2-(5-(4-bromophenyl)-1-(2,4-dichlorophenyl)-4-(fluoromethyl)-1H-pyrazol-3-yl)-5-tert-butyl-1,3,4-thiadiazole], the IC50 was found to be 8.93 nM.
